Results taken from patent publication US9376694B2, “Method for preparing optically active amino acid using cosubstrate shuttling of transaminase” (INDUSTRY-ACADEMIC COOPERATION FOUNDATION, YONSEI UNIVERSITY, priority 2012, dated 2016).
“And” between values parts separate entries of the source, which are not always exact repeats. Identical values can stand only once.

Legend:
[1] = system: ω-transaminase derived from Paracoccus denitrificans (PdwTA); experiment: Substrate specificity of purified ω-transaminase for keto acids in initial stage of reaction, PdwTA; assay type: biochemical; parameters: unit not given here; details: purified enzyme (1 U/mL); 20 mM keto acid, 20 mM (S)-α-methylbenzylamine, pH 7.0, 37° C., 10 minutes
Procedure: (§1) Reaction was conducted using the ω-transaminase purified in Example 3 and using various keto acids and amine as substrates as described in [Table 7]. After adding 10 μL of the purified enzyme (1 U/mL) to 100 μL of a mixture of 20 mM keto acid, 20 mM (S)-α-methylbenzylamine and 50 mM potassium phosphate (pH 7.0), reaction was conducted at 37° C. for 10 minutes and the amount of produced acetophenone (deaminated ketone of (S)-α-methylbenzylamine) was measured. The result was compared with that of the ω-transaminase derived from Ochrobactrum anthropi. The result is shown in [Table 7].

[2] = system: ω-transaminase derived from Ochrobactrum anthropi; experiment: Substrate specificity of purified ω-transaminase for keto acids in initial stage of reaction, OawTA; assay type: biochemical; parameters: unit not given here; details: 20 mM keto acid, 20 mM (S)-α-methylbenzylamine, pH 7.0, 37° C., 10 minutes
Procedure: as §1

[3] = system: ω-transaminase derived from Ochrobactrum anthropi; experiment: Substrate specificity of purified ω-transaminase for keto acids, OawTA; assay type: biochemical; details: 20 mM keto acid, 20 mM (S)-α-methylbenzylamine, pH 7.0, 37° C., 6 hours
Procedure: as §1, with “6].” for “7].”, “(6” for “(1”, “6 hours” for “10 minutes”

[4] = system: ω-transaminase derived from Paracoccus denitrificans (PdwTA); experiment: Substrate specificity of purified ω-transaminase for keto acids, PdwTA; assay type: biochemical; details: purified enzyme (6 U/mL); 20 mM keto acid, 20 mM (S)-α-methylbenzylamine, pH 7.0, 37° C., 6 hours
Procedure: as §1, with “6].” for “7].”, “(6” for “(1”, “6 hours” for “10 minutes”

[5] = target: T1, branched-chain transaminase (Escherichia coli, UniProt P0AB80); experiment: Substrate specificity of purified branched-chain transaminase for keto acids; assay type: biochemical, E. coli; details: for Concentration of 2-oxobutyrate: purified enzyme (1 U/mL), 20 mM L-homoalanine, 20 mM keto acid, pH 7.0, 37° C., 7 hours
T1 construct: made in house; host or cells: E. coli BL21(DE3)
Procedure: Reaction was conducted using the branched-chain transaminase purified in Example 3 and using various L-amino acids and keto acids described in [Table 3] as substrates. After adding 10 μL of the purified enzyme (1 U/mL) to 100 μL of a mixture of 20 mM L-homoalanine, 20 mM keto acid and 50 mM potassium phosphate (pH 7.0), reaction was conducted at 37° C. for 7 hours and the amount of produced 2-oxobutyrate (keto acid of L-homoalanine) was measured. The result is shown in [Table 3].
When trimethylpyruvate and L-homoalanine were used as substrates, the equilibrium constant of the reaction by the branched-chain transaminase was very low at 0.16.

[6] = system: ω-transaminase derived from Ochrobactrum anthropi; experiment: Substrate specificity of purified ω-transaminase for amino acids (glyoxylate acceptor), OawTA; assay type: biochemical; details: 20 mM glyoxylate, 20 mM L-amino acid, pH 7.0, 37° C., 6 hours
Procedure: (§2) Reaction was conducted using the ω-transaminase purified in Example 3 and using various L-amino acids and […] as substrates as described in [Table 5]. After adding 10 μL of the purified enzyme (5 U/mL) to 100 μL of a mixture of 20 mM glyoxylate, 20 mM L-amino acid and 50 mM potassium phosphate (pH 7.0), reaction was conducted at 37° C. for 6 hours and the amount of produced L-glycine was measured. The reaction was conducted 3 times and the result was compared with that of the ω-transaminase derived from Ochrobactrum anthropi. The result is shown in [Table 5].

[7] = system: ω-transaminase derived from Paracoccus denitrificans (PdwTA); experiment: Substrate specificity of purified ω-transaminase for amino acids (glyoxylate acceptor), PdwTA; assay type: biochemical; details: purified enzyme (5 U/mL); 20 mM glyoxylate, 20 mM L-amino acid, pH 7.0, 37° C., 6 hours; reaction conducted 3 times
Procedure: as §2

[8] = target: T1, branched-chain transaminase; experiment: Substrate specificity of purified branched-chain transaminase for amino acids with trimethylpyruvate; assay type: biochemical, E. coli; details: purified enzyme (6 U/mL); 20 mM trimethylpyruvate, 20 mM L-amino acid, pH 7.0, 37° C., 6 hours
Procedure: Reaction was conducted using the branched-chain transaminase purified in Example 3 and using various L-amino acids and trimethylpyruvate as substrates as described in [Table 4]. After adding 10 μL of the purified enzyme (6 U/mL) to 100 μL of a mixture of 20 mM trimethylpyruvate, 20 mM L-amino acid and 50 mM potassium phosphate (pH 7.0), reaction was conducted at 37° C. for 6 hours and the amount of produced L-tert-leucine was measured. The result is shown in [Table 4].

[9] = target: T1, branched-chain transaminase; experiment: Substrate specificity of branched-chain transaminase for amino acids, enzyme-containing crude extract; assay type: biochemical, E. coli; details: 20 mM L-amino acid, pH 7.0, 37° C., 30 minutes
Procedure: Reaction was conducted using the crude extract containing the branched-chain transaminase obtained in Example 3 and using various L-amino acids and keto acids described in [Table 1] as substrates. After adding 20 μL of the crude extract to 200 μL of a mixture of 20 mM L-amino acid, 20 mM keto acid and 50 mM potassium phosphate (pH 7.0), reaction was conducted at 37° C. for 30 minutes and the amount of produced L-amino acid was measured. The result is shown in [Table 1].

[10] = target: T1, branched-chain transaminase; experiment: Substrate specificity of branched-chain transaminase for amino acids with trimethylpyruvate, crude extract; assay type: biochemical, E. coli; details: 20 mM trimethylpyruvate, 20 mM L-amino acid, pH 7.0, 37° C., 2 hours
Procedure: Reaction was conducted using the crude extract containing the branched-chain transaminase obtained in Example 3 and using various trimethylpyruvate (keto acid of L-tert-leucine) as substrates. After adding 100 μL of the crude extract to 200 μL of a mixture of 20 mM trimethylpyruvate, 20 mM L-amino acid and 50 mM potassium phosphate (pH 7.0), reaction was conducted at 37° C. for 2 hours and the amount of produced L-tert-leucine was measured. The result is shown in [Table 2].

[11] = 20 mM α-ketoglutarate as keto acid

T1 sequence (P0AB80 whole entry): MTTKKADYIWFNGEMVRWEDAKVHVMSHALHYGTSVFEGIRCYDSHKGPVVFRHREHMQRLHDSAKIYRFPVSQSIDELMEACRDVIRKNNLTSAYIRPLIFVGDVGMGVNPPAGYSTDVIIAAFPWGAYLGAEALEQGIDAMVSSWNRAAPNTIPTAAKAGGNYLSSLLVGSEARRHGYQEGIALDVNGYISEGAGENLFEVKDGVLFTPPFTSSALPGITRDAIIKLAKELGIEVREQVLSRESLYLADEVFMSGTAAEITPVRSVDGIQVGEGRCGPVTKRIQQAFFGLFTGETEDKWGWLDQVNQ

SMILES	amount of produced acetophenone, PdwTA [1]	amount of produced acetophenone, OawTA [2]	Concentration of L-glycine, OawTA [6]	Concentration of L-glycine, PdwTA [7]	Concentration of L-tert-leucine [8]	other results
O=C(O)C(=O)CO [β-Hydroxypyruvate]	0.066	0.183	–	–	–	–
CC(C)C(=O)C(=O)O [3-Methyl-2-oxobutyrate]	–	–	–	–	–	Concentration of acetophenone, OawTA [3]: 0.00 mM; Concentration of acetophenone, PdwTA [4]: 0.00 mM; Concentration of 2-oxobutyrate [5]: 11.93 mM
CCC[C@H](N)C(=O)O [L-Norvaline]	–	–	0.36 mM	13.43 mM and 14.29 mM and 14.12 mM	6.31 mM and 5.34 mM and 6.06 mM	–
O=C(O)C(=O)CF [Fluoropyruvate]	0.339	0.554	–	–	–	–
CCCCC(=O)C(=O)O [2-Oxohexanoic acid]	0.713	0.006	–	–	–	Concentration of acetophenone, OawTA [3]: 3.07 mM; Concentration of acetophenone, PdwTA [4]: 5.22 mM
CC(C)(C)[C@H](N)C(=O)O [L-tert-Leucine]	–	–	–	–	–	Production amount of L-amino acid [9, 11]: 0.06 mM
O=C(O)C(=O)CS [Mercaptopyruvate]	0.008	0.012	–	–	–	–
CC(C)[C@H](N)C(=O)O [L-Valine]	–	–	0.00 mM	0.18 mM and 0.20 mM and 0.17 mM	6.31 mM and 5.04 mM and 6.23 mM	Production amount of L-tert-leucine [10]: 7.8 mM; Production amount of L-amino acid [9, 11]: 1.6 mM
CC[C@H](C)[C@H](N)C(=O)O [L-Isoleucine]	–	–	0.00 mM	0.00 mM	7.79 mM and 7.48 mM and 6.51 mM	Production amount of L-tert-leucine [10]: 9.2 mM; Production amount of L-amino acid [9, 11]: 2.6 mM
O=C(O)C(=O)C12CC3CC(CC(O)(C3)C1)C2 [2-(3-Hydroxy-1-adamantyl)-2-oxoethanoic acid]	–	–	–	–	–	Concentration of 2-oxobutyrate [5]: 5.47 mM
O=CC(=O)O [Gyloxylate]	1.076	1.733	–	–	–	–
CC(C)(C)C(=O)C(=O)O [Trimethylpyruvate]	–	–	–	–	–	Concentration of 2-oxobutyrate [5]: 5.83 mM; equilibrium constant of the reaction by the branched-chain transaminase ([5]; trimethylpyruvate and L-homoalanine as substrates): 0.16
CCC(=O)C(=O)O [2-Oxobutyrate]	0.821	0.173	–	–	–	Concentration of acetophenone, OawTA [3]: 5.05 mM; Concentration of acetophenone, PdwTA [4]: 5.03 mM
CCCC(=O)C(=O)O [2-Oxopentanoic acid]	1.332	0.378	–	–	–	Concentration of acetophenone, OawTA [3]: 3.45 mM; Concentration of acetophenone, PdwTA [4]: 5.24 mM
CC(C)CC(=O)C(=O)O [4-Methyl-2-oxopentanoic acid]	0.175	0.005	–	–	–	Concentration of acetophenone, OawTA [3]: 0.03 mM; Concentration of acetophenone, PdwTA [4]: 4.99 mM; Concentration of 2-oxobutyrate [5]: 7.27 mM
CCC(C)C(=O)C(=O)O (centres unmarked) [3-Methyl-2-oxoxpentanoic acid]	–	–	–	–	–	Concentration of acetophenone, OawTA [3]: 0.00 mM; Concentration of acetophenone, PdwTA [4]: 0.00 mM; Concentration of 2-oxobutyrate [5]: 8.49 mM
C[C@H](N)C(=O)O [L-Alanine]	–	–	11.73 mM	13.92 mM and 13.31 mM and 11.61 mM	2.24 mM and 2.07 mM and 2.23 mM	Production amount of L-tert-leucine [10]: 0.8 mM
CC(C)C[C@H](N)C(=O)O [L-Leucine]	–	–	0.00 mM	7.93 mM and 7.95 mM and 5.71 mM	6.71 mM and 6.32 mM and 7.06 mM	–
N[C@@H](CCC(=O)O)C(=O)O [L-Glutamate]	–	–	–	–	–	Production amount of L-tert-leucine [10]: 6.4 mM; Production amount of L-amino acid ([9]; 20 mM 2-oxobutyrate as keto acid): 4.2 mM
CC[C@H](N)C(=O)O [L-Homoalanine]	–	–	4.97 mM	12.56 mM and 13.31 mM and 11.26 mM	5.57 mM and 4.43 mM and 5.71 mM	Production amount of L-tert-leucine [10]: 7.2 mM; Production amount of L-amino acid [9, 11]: 0.1 mM
CCCC[C@H](N)C(=O)O [L-Norleucine]	–	–	0.28 mM	13.41 mM and 12.97 mM and 12.59 mM	5.90 mM and 5.48 mM and 5.55 mM	–
